From patent US6787354B2, “Methods for the early diagnosis of ovarian cancer” (The Board of Trustees of The University of Arkansas, priority 1997, dated 2004) come the findings set out here.

For the series, the system named is peptide-loaded lymphoblastoid cell lines (LCL). Put plainly: 51Cr-release cytotoxicity assay with peptide-specific CD8+ CTL. Type of series: cell-based, human. How it is done: Monocyte-derived dendritic cells were generated from peripheral blood drawn from normal adult donors of the appropriate HLA type. Adherent monocytes were cultured in AIM-V (Gibco-BRL) supplemented with GM-CSF and IL-4 according to standard techniques (Santin et al, 2000, 2001). After 5-6 days, dendritic cell maturation was induced by addition of PGE2, IL-1β and TNFα for a further 48 h.
Mature dendritic cells were loaded with peptide (2×10^6 dendritic cells with 50 μg/ml peptide in 1 ml serum-free AIM-V medium for 2 h at 37° C.) and washed once prior to culture with 1×10^6/ml peripheral blood mononuclear cells (PBMC) in AIM-V or AIM-V plus 5% human AB serum. The PBMC:DC ratio was between 20:1 and 30:1. After 7 days, responder T cells were restimulated with peptide-loaded, irradiated autologous dendritic cells or peripheral blood mononuclear cells at responder:stimulator ratios between 10:1 and 20:1 or 1:1 and 1:10 respectively. At this point, cultures were supplemented with recombinant human IL-2 (10-100 U/ml), and fed with 50-75% changes of fresh medium plus IL-2 every 2-4 days. T cell lines were established and maintained by peptide restimulation every 14-21 days. Responder CD8^+T cells were purified by positive selection with anti-CD8-coupled magnetic beads (Dynal, Inc.) after the 2nd or 3rd antigen stimulation.
Peptide-specific cytotoxicity was tested in standard 5-6 h microwell ^51Cr-release assays (Nazaruk et al, 1998). Autologous EBV-transformed lymphoblastoid cell lines (LCL) were loaded with peptide (50 μg/ml, 1 h at 37° C.) and subsequently ^51Cr-labeled (50 μCi in 200-300 μl, 1 h at 37° C.). Peptide-loaded ^51Cr-labeled LCL were incubated with CD8^+T cells at effector-target ration between 5:1 and 1.25:1. Cytotoxicity was recorded as percentage ^51Cr released into culture supernatants.

Ends that are not written are not given here.

For the sequence SLGRWPWQV [SLGRWPWQV], the “Blocking of cytotoxicity against peptide-loaded LCL by MAb specific for a non-polymorphic HLA class I determinant” value is on record as “could be blocked” and the “Blocking of cytotoxicity by MAb specific for HLA A2.1” value is on record as “blocked”.

With GRWPWQVSL [GRWPWQVSL], the “Blocking of cytotoxicity against peptide-loaded LCL by MAb specific for a non-polymorphic HLA class I determinant” value was “could be blocked”.
